Broadly, the Ki is a dissociation constant, usually derived from enzyme kinetics or from competition with a known ligand. For orientation: inhibition means the share of the control response that was lost under treatment. A low value points to a response near the control.

The record followed here is ChEMBL document CHEMBL1127363, “Structure-activity relationship studies of N-sulfonyl analogs of cocaine: role of ionic interaction in cocaine binding” (J Med Chem, 1994).

Experiment [1] addresses T1, Sodium-dependent dopamine transporter (Rattus norvegicus, UniProt P23977). The experiment is described as follows: Binding affinity was tested by measuring its ability to displace [3H]-mazindol binding against dopamine transporter (DAT) of rat striatal membranes.
Experiment [2] is filed under the species Rattus norvegicus. Briefly: Compound was tested to inhibit high affinity uptake of [3H]- -dopamine into striatal nerve endings (synaptosomes). It counts as functional, Brain.
The species named for experiment [3] is Rattus norvegicus. Briefly: Compound was tested to inhibit high affinity uptake of [3H]dopamine into striatal nerve endings (synaptosomes). The class given is functional, Brain.
Experiment [4] has as its target T1, Sodium-dependent dopamine transporter. The experiment is described as follows: Binding affinity was tested by measuring its ability to displace [3H]mazindol binding against dopamine transporter (DAT) of rat striatal membranes.
Experiment [5] concerns the target Sodium-dependent dopamine transporter (Rattus norvegicus) (UniProt P23977). The experiment is described as follows: Inhibition of [3H]mazindol binding to dopamine transporter (DAT) of rat striatal membranes at 100 uM. It counts as cell membranes. The settings on record: Membrane.
Experiment [6] is filed under the species Rattus norvegicus. The experiment is described as follows: Inhibition of high affinity uptake of [3H]- -dopamine into striatal nerve endings (synaptosomes) at 300 uM. The class given is functional. As to conditions: Brain.
For experiment [7], the species on record is Rattus norvegicus. The experiment is described as follows: Compound was tested to inhibit high affinity uptake of [3H]- -Dopamine into striatal nerve endings (synaptosomes). It counts as functional, Brain.

T1 sequence (P23977 whole entry): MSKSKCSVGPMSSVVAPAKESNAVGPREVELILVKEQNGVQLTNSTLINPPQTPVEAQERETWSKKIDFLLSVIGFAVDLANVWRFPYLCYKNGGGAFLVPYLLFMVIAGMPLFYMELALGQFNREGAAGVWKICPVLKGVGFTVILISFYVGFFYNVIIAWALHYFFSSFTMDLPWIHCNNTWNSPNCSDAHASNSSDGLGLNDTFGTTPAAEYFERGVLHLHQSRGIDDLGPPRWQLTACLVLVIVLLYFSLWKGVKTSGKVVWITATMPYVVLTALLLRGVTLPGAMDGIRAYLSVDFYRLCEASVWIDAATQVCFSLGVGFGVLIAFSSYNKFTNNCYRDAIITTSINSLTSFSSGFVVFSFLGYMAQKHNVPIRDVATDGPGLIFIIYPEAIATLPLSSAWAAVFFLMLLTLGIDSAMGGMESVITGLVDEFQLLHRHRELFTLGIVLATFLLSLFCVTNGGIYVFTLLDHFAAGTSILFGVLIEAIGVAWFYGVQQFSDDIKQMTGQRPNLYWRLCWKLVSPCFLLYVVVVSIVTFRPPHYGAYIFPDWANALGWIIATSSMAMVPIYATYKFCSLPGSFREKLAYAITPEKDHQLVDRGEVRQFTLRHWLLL
Sequence of Sodium-dependent dopamine transporter (Rattus norvegicus) (P23977 whole entry): as above

As to `COC(=O)[C@@H]1C2CCC(C[C@@H]1OC(=O)c1ccccc1)N2S(=O)(=O)C(F)(F)F` (some centres undefined), the results for the inhibition constant (Ki) (in experiment [1]; in the experiment filed under Rattus norvegicus [2]) were 0.33 µM and 0.76 µM, respectively.
For `COC(=O)[C@@H]1C2CCC(C[C@@H]1OC(=O)c1ccccc1)N2S(=O)(=O)c1ccccc1` (some centres undefined), the Ki in experiment [1] is 20.8 µM; in the experiment listed under Rattus norvegicus [2] it was 61 µM.
The like results for `COC(=O)[C@@H]1C2CCC(C[C@@H]1OC(=O)c1ccccc1)N2S(=O)(=O)c1ccc(OC)cc1` (some centres undefined) were, in that order, 6.82 µM and 16.4 µM.
On to `COC(=O)[C@@H]1C2CCC(C[C@@H]1OC(=O)c1ccccc1)N2S(C)(=O)=O` (some centres undefined), for which the Ki in the experiment listed under Rattus norvegicus [3] amounted to 1.97 µM; in experiment [4], 1.29 µM.
Regarding `COC(=O)[C@@H]1C2CCC(C[C@@H]1OC(=O)c1ccccc1)N2S(=O)(=O)c1ccc([N+](=O)[O-])cc1` (some centres undefined), the inhibition in experiment [5] was 80%; in the experiment filed under Rattus norvegicus [6] it was 72%. For the same compound, the Ki in experiment [1] came out at 5.72 µM; in the experiment listed under Rattus norvegicus [2] it was 18.8 µM.
Take `COC(=O)[C@@H]1C2CC[C@@H](C[C@@H]1OC(=O)c1ccccc1)N2S(=O)(=O)N=C=O`: the Ki in the experiment filed under Rattus norvegicus [7] is 0.16 µM; in experiment [4], 0.12 µM.
